Data reported in patent US20250114338A1, “TETRAHYDRO-PYRIDO[3,4-b]INDOLE ESTROGEN RECEPTOR MODULATORS AND USES THEREOF” (Genentech, Inc., priority 2014, published 2025).

Tested on: ER-alpha MCF7
Assay: ER-alpha MCF7 HCS EC50; stated as measured by in vitro cell proliferation assays of Examples 902 and 903
Format: cell-based
Conditions: Homo sapiens, MCF7, MCF7 cells; Table 2
Procedure, shortened: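 MCF7 cells seeded 1000-2000 cells/well for 16 h, then treated with nine-point 1:2 DMSO dilution series in quadruplicate at 37 °C, 5% CO2 for 4 days. Viable cells quantified by CellTiter-Glo ATP luminescence; EC50 calculated. Controls: fulvestrant at final 100 nM, DMSO 0.2% v/v.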

EC50	Compound
1.8 nM	CC1(C)Cc2c([nH]c3ccccc23)[C@H](c2c(F)cc(NC3CN(CCCF)C3)cc2F)N1CC(F)F [Example 406, (S)-N-(4-(2-(2,2-difluoroethyl)-3,3-dimethyl-2,3,4,9-tetrahydro-1H-pyrido[3,4-b]indol-1-yl)-3,5-difluorophenyl)-1-(3-fluoropropyl)azetidin-3-amine]
0.12 nM	C[C@@H]1Cc2c([nH]c3cccc(F)c23)[C@@H](c2c(F)cc(NC3CN(CCCF)C3)cc2F)N1CC(F)(F)F [Example 407, N-(3,5-difluoro-4-((1R,3R)-5-fluoro-3-methyl-2-(2,2,2-trifluoroethyl)-2,3,4,9-tetrahydro-1H-pyrido[3,4-b]indol-1-yl)phenyl)-1-(3-fluoropropyl)azetidin-3-amine]
6.3 nM	C[C@H]1Cc2c([nH]c3cccc(F)c23)[C@H](c2c(F)cc(NC3CN(CCCF)C3)cc2F)N1CC(F)(F)F [Example 408, N-(3,5-difluoro-4-((1S,3S)-5-fluoro-3-methyl-2-(2,2,2-trifluoroethyl)-2,3,4,9-tetrahydro-1H-pyrido[3,4-b]indol-1-yl)phenyl)-1-(3-fluoropropyl)azetidin-3-amine]
26 nM	C[C@H]1Cc2c([nH]c3c(F)cccc23)[C@H](c2c(F)cc(NC3CN(CCCF)C3)cc2F)N1CC(F)(F)F [Example 409, N-(3,5-difluoro-4-((1S,3S)-8-fluoro-3-methyl-2-(2,2,2-trifluoroethyl)-2,3,4,9-tetrahydro-1H-pyrido[3,4-b]indol-1-yl)phenyl)-1-(3-fluoropropyl)azetidin-3-amine]
0.12 nM	C[C@@H]1Cc2c([nH]c3c(F)cccc23)[C@@H](c2c(F)cc(NC3CN(CCCF)C3)cc2F)N1CC(F)(F)F [Example 410, N-(3,5-difluoro-4-((1R,3R)-8-fluoro-3-methyl-2-(2,2,2-trifluoroethyl)-2,3,4,9-tetrahydro-1H-pyrido[3,4-b]indol-1-yl)phenyl)-1-(3-fluoropropyl)azetidin-3-amine]
0.07 nM	C[C@@H]1Cc2c([nH]c3ccccc23)[C@@H](c2c(F)cc(OC3CN(CCCF)C3)cc2F)N1CC1(F)COC1 [Example 411, (1R,3R)-1-(2,6-difluoro-4-(1-(3-fluoropropyl)azetidin-3-yloxy)phenyl)-2-((3-fluorooxetan-3-yl)methyl)-3-methyl-2,3,4,9-tetrahydro-1H-pyrido[3,4-b]indole]
1.3 nM	C[C@H]1Cc2c([nH]c3cc(F)ccc23)[C@H](c2c(F)cc(NC3CN(CCCF)C3)cc2F)N1C[C@](C)(F)CO [Example 412, (S)-3-((1S,3S)-1-(2,6-difluoro-4-((1-(3-fluoropropyl)azetidin-3-yl)amino)phenyl)-7-fluoro-3-methyl-3,4-dihydro-1H-pyrido[3,4-b]indol-2(9H)-yl)-2-fluoro-2-methylpropan-1-ol]
0.018 nM	C[C@@H]1Cc2c([nH]c3cc(F)ccc23)[C@@H](c2c(F)cc(NC3CN(CCCF)C3)cc2F)N1C[C@@](C)(F)CO [Example 413, (R)-3-((1R,3R)-1-(2,6-difluoro-4-((1-(3-fluoropropyl)azetidin-3-yl)amino)phenyl)-7-fluoro-3-methyl-3,4-dihydro-1H-pyrido[3,4-b]indol-2(9H)-yl)-2-fluoro-2-methylpropan-1-ol]
0.12 nM	C[C@@H]1Cc2c([nH]c3cc(F)ccc23)[C@@H](c2c(F)cc(NC3CN(CCCF)C3)cc2F)N1C[C@](C)(F)CO [Example 414, (S)-3-((1R,3R)-1-(2,6-difluoro-4-((1-(3-fluoropropyl)azetidin-3-yl)amino)phenyl)-7-fluoro-3-methyl-3,4-dihydro-1H-pyrido[3,4-b]indol-2(9H)-yl)-2-fluoro-2-methylpropan-1-ol]
9.5 nM	C[C@H]1Cc2c([nH]c3cc(F)ccc23)[C@H](c2c(F)cc(NC3CN(CCCF)C3)cc2F)N1C[C@@](C)(F)CO [Example 415, (R)-3-((1S,3S)-1-(2,6-difluoro-4-((1-(3-fluoropropyl)azetidin-3-yl)amino)phenyl)-7-fluoro-3-methyl-3,4-dihydro-1H-pyrido[3,4-b]indol-2(9H)-yl)-2-fluoro-2-methylpropan-1-ol]
0.024 nM	C[C@@H]1Cc2c([nH]c3cccc(F)c23)[C@@H](c2c(F)cc(NC3CN(CCCF)C3)cc2F)N1CC(F)(F)CO [Example 416, 3-((1R,3R)-1-(2,6-difluoro-4-((1-(3-fluoropropyl)azetidin-3-yl)amino)phenyl)-5-fluoro-3-methyl-3,4-dihydro-1H-pyrido[3,4-b]indol-2(9H)-yl)-2,2-difluoropropan-1-ol]
3.3 nM	C[C@H]1Cc2c([nH]c3cccc(F)c23)[C@H](c2c(F)cc(NC3CN(CCCF)C3)cc2F)N1CC(F)(F)CO [Example 417, 3-((1S,3S)-1-(2,6-difluoro-4-((1-(3-fluoropropyl)azetidin-3-yl)amino)phenyl)-5-fluoro-3-methyl-3,4-dihydro-1H-pyrido[3,4-b]indol-2(9H)-yl)-2,2-difluoropropan-1-ol]
0.033 nM	C[C@@H]1Cc2c([nH]c3ccccc23)[C@@H](c2c(F)cc(NC3CN(CCCF)C3)cc2F)N1C[C@@](F)(C#N)CO [Example 418, (R)-3-((1R,3R)-1-(2,6-difluoro-4-((1-(3-fluoropropyl)azetidin-3-yl)amino)phenyl)-3-methyl-3,4-dihydro-1H-pyrido[3,4-b]indol-2(9H)-yl)-2-fluoro-2-(hydroxymethyl) propanenitrile]
0.026 nM	C[C@@H]1Cc2c([nH]c3ccccc23)[C@@H](c2c(F)cc(NC3CN(CCCF)C3)cc2F)N1C[C@](F)(C#N)CO [Example 419, (S)-3-((1R,3R)-1-(2,6-difluoro-4-((1-(3-fluoropropyl)azetidin-3-yl)amino)phenyl)-3-methyl-3,4-dihydro-1H-pyrido[3,4-b]indol-2(9H)-yl)-2-fluoro-2-(hydroxymethyl) propanenitrile]
0.117 nM	CC1(C)Cc2c([nH]c3ccccc23)[C@@H](c2c(F)cc(NC3CN(CCCF)C3)cc2F)N1CC(F)(F)CO [Example 420, (R)-3-(1-(2,6-difluoro-4-((1-(3-fluoropropyl)azetidin-3-yl)amino)phenyl)-3,3-dimethyl-3,4-dihydro-1H-pyrido[3,4-b]indol-2(9H)-yl)-2,2-difluoropropan-1-ol]
0.146 nM	CC1(C)Cc2c([nH]c3ccccc23)[C@H](c2c(F)cc(NC3CN(CCCF)C3)cc2F)N1CC(F)(F)CO [Example 421, (S)-3-(1-(2,6-difluoro-4-((1-(3-fluoropropyl)azetidin-3-yl)amino)phenyl)-3,3-dimethyl-3,4-dihydro-1H-pyrido[3,4-b]indol-2(9H)-yl)-2,2-difluoropropan-1-ol]
37.1 nM	C[C@H]1Cc2c([nH]c3c(F)cccc23)[C@H](c2c(F)cc(NC3CN(CCCF)C3)cc2F)N1CC(F)(F)CO [Example 422, 3-((1S,3S)-1-(2,6-difluoro-4-((1-(3-fluoropropyl)azetidin-3-yl)amino)phenyl)-8-fluoro-3-methyl-3,4-dihydro-1H-pyrido[3,4-b]indol-2(9H)-yl)-2,2-difluoropropan-1-ol]
0.089 nM	C[C@@H]1Cc2c([nH]c3c(F)cccc23)[C@@H](c2c(F)cc(NC3CN(CCCF)C3)cc2F)N1CC(F)(F)CO [Example 423, 3-((1R,3R)-1-(2,6-difluoro-4-((1-(3-fluoropropyl)azetidin-3-yl)amino)phenyl)-8-fluoro-3-methyl-3,4-dihydro-1H-pyrido[3,4-b]indol-2(9H)-yl)-2,2-difluoropropan-1-ol]
0.5 nM	C[C@@H]1Cc2c([nH]c3c(F)cc(F)cc23)[C@@H](c2c(F)cc(OC3CN(CCCF)C3)cc2F)N1CC(C)(C)F [Example 424, (1R,3R)-1-(2,6-difluoro-4-(1-(3-fluoropropyl)azetidin-3-yloxy)phenyl)-6,8-difluoro-2-(2-fluoro-2-methylpropyl)-3-methyl-2,3,4,9-tetrahydro-1H-pyrido[3,4-b]indole]
0.021 nM	C[C@@H]1Cc2c([nH]c3cc(F)ccc23)[C@@H](c2c(F)cc(NC3CN(CCCF)C3)cc2F)N1CC(F)(F)CO [Example 425, 3-((1R,3R)-1-(2,6-difluoro-4-((1-(3-fluoropropyl)azetidin-3-yl)amino)phenyl)-7-fluoro-3-methyl-3,4-dihydro-1H-pyrido[3,4-b]indol-2(9H)-yl)-2,2-difluoropropan-1-ol]
6.38 nM	C[C@H]1Cc2c([nH]c3cc(F)ccc23)[C@H](c2c(F)cc(NC3CN(CCCF)C3)cc2F)N1CC(F)(F)CO [Example 426, 3-((1S,3S)-1-(2,6-difluoro-4-((1-(3-fluoropropyl)azetidin-3-yl)amino)phenyl)-7-fluoro-3-methyl-3,4-dihydro-1H-pyrido[3,4-b]indol-2(9H)-yl)-2,2-difluoropropan-1-ol]
0.278 nM	C[C@@H]1Cc2c([nH]c3ccccc23)[C@@H](c2c(F)cc(OC3CN(CC4(CF)CC4)C3)cc2F)N1CC(C)(C)F [Example 427, (1R,3R)-1-(2,6-difluoro-4-((1-((1-(fluoromethyl)cyclopropyl)methyl)azetidin-3-yl)oxy)phenyl)-2-(2-fluoro-2-methylpropyl)-3-methyl-2,3,4,9-tetrahydro-1H-pyrido[3,4-b]indole]
0.7 nM	C[C@@H]1Cc2c([nH]c3cc(F)c(F)cc23)[C@@H](c2c(F)cc(OC3CN(CCCF)C3)cc2F)N1CC(C)(C)F [Example 428, (1R,3R)-1-(2,6-difluoro-4-(1-(3-fluoropropyl)azetidin-3-yloxy)phenyl)-6,7-difluoro-2-(2-fluoro-2-methylpropyl)-3-methyl-2,3,4,9-tetrahydro-1H-pyrido[3,4-b]indole]
0.99 nM	C[C@@H]1Cc2c([nH]c3ccccc23)[C@@H](c2cnn(CC3CN(CCCF)C3)c2)N1CC(C)(C)F [Example 429, (1R,3R)-2-(2-fluoro-2-methylpropyl)-1-(1-((1-(3-fluoropropyl)azetidin-3-yl)methyl)-1H-pyrazol-4-yl)-3-methyl-2,3,4,9-tetrahydro-1H-pyrido[3,4-b]indole]
